Results on five molecules are retold here after ChEMBL document CHEMBL1157385, “(Iso)-quinoline alkaloids from fungal fruiting bodies of Cortinarius subtortus” (J Nat Prod, 2008).

Usually EC50 stands for the concentration that produces a half-maximal response. Broadly, the inhibition is the drop in the measured response relative to a control, in per cent. Lower therefore signals a weak effect.

Experiment [1] concerns Radical scavenging activity. Description: Antioxidant activity assessed as DPPH free radical scavenging activity at 1 mM. It is filed as functional. Background: The DPPH test is a chemical assay of radical scavenging.
Another experiment has as its system Colletotrichum coccodes. Description: Growth inhibition of Colletotrichum coccodes (Wallr.) S. Hughes at 100 uM after 6 days. It is filed as functional, organism-based. The settings on record: 144 h.

`O=C1O[C@H]([C@@H](O)CO)C(O)=C1O` [ASCORBIC ACID]: in experiment [1], the concentration giving a half-maximal response (EC50) was 45 µM.

Turning to `O=C(O)c1cc(O)cc2c(=O)[nH]ccc12`, the Activity in experiment [1] is 21%.

With `Oc1cccc2cccnc12` [QUINOSOL], in the experiment with Colletotrichum coccodes, the EC50 came out at 0.19 µM.

In turn, `O=C(O)c1cc(O)cc2cccnc12` came in with an inhibition at 100 µM in the experiment with Colletotrichum coccodes of 71%. The Activity in experiment [1] is 15%.

Consider `Nc1ccnc2c(C(=O)O)cc(O)cc12`, for which the Activity in experiment [1] was 12%.
